How the values were obtained:
Format in all cases: physicochemical
[1] = Laser diffraction particle size analysis of recrystallized crystals; conditions: large scale batch, recrystallized from methanol, slow evaporation, isotherm 25° C.
Excerpt: As used herein, laser diffraction is the methodology used for measuring and analyzing particle size and size distribution of a sample or collection of particles (e.g., the recrystallized columnar crystals and the sized crystals). More specifically, a D10 value refers to the diameter at which 10% of the sample's mass is comprised of particles with a diameter less than this value. Likewise, a D50 value is the diameter of the particle that 50% of a sample's mass is smaller than and 50% of a sample's mass is larger than the value.
In histogram, D10, D50 and D90 are intercepts for 10%, 50% and 90% of the cumulative mass in the particles size. Since the density is the same for all particles, then the mass and volume are linearly related, thus the % remains the same. The method used also reports the cumulative distribution in volume.
Different large-scale batches were run to show the reproducibility of the recrystallization method. Laser diffraction results of particle size analysis for four large scale batches are below:
(§1) The laser diffraction method assumes an equivalent sphere when calculating the results. The aspect ratio in the imaging analysis show a range of aspect ratio from 3 to 50, while a majority of aspect ratios are in the range of 5-20.

[2] = Particle size distribution by Malvern particle size analyzer (sized crystals); conditions: after milling in rotor/stator homogenizer and sieving
Excerpt: The milled crystals were then sieved through two separate sieves to eliminate fines or remnant large crystals. […] As shown, the drug crystal obtained have relatively narrow distribution and the minimal amount of fine material and absence of very fine material (no particles below 9 μm).

[3] = Imaging analysis of aspect ratio
Excerpt: as §1

Q: Which D10 [1] does the source give for `CCC(=O)O[C@]1(C(=O)SCF)[C@H](C)C[C@H]2[C@@H]3C[C@H](F)C4=CC(=O)C=C[C@]4(C)[C@@]3(F)[C@@H](O)C[C@@]21C` [Batch 2, fluticasone propionate] here?
A: 97 µm

Q: What about the D50 [1] of the same molecule?
A: 323 µm

Q: And the D90 [1]?
A: 838 µm

Q: With `CCC(=O)O[C@]1(C(=O)SCF)[C@H](C)C[C@H]2[C@@H]3C[C@H](F)C4=CC(=O)C=C[C@]4(C)[C@@]3(F)[C@@H](O)C[C@@]21C` [Batch 4, fluticasone propionate] as the molecule, how does the D10 [1] read?
A: 82 µm

Q: And the D50 [1]?
A: 288 µm

Q: What about the D90 [1] of the same molecule?
A: 820 µm

Q: Which “smallest particle size (no particles below)” value [2] does the source give for `CCC(=O)O[C@]1(C(=O)SCF)[C@H](C)C[C@H]2[C@@H]3C[C@H](F)C4=CC(=O)C=C[C@]4(C)[C@@]3(F)[C@@H](O)C[C@@]21C` [resized drug crystals, fluticasone propionate] here?
A: ≥ 9 μm

Q: Which D10 [1] does the source give for `CCC(=O)O[C@]1(C(=O)SCF)[C@H](C)C[C@H]2[C@@H]3C[C@H](F)C4=CC(=O)C=C[C@]4(C)[C@@]3(F)[C@@H](O)C[C@@]21C` [Batch 1, fluticasone propionate] here?
A: 119 µm

Q: What about the D50 [1] of the same molecule?
A: 365 µm

Q: What about the D90 [1] of the same molecule?
A: 876 µm

Q: For `CCC(=O)O[C@]1(C(=O)SCF)[C@H](C)C[C@H]2[C@@H]3C[C@H](F)C4=CC(=O)C=C[C@]4(C)[C@@]3(F)[C@@H](O)C[C@@]21C` [Batch 3, fluticasone propionate], which D10 [1] is on record?
A: 72 µm

Q: And the D50 [1]?
A: 253 µm

Q: What about the D90 [1] of the same molecule?
A: 798 µm

Q: Which “aspect ratio, majority” value ([3]; majority of aspect ratios) does the source give for `CCC(=O)O[C@]1(C(=O)SCF)[C@H](C)C[C@H]2[C@@H]3C[C@H](F)C4=CC(=O)C=C[C@]4(C)[C@@]3(F)[C@@H](O)C[C@@]21C` [recrystallized fluticasone propionate, fluticasone propionate] here?
A: 5-20

Q: And the “aspect ratio, range” value ([3]; whole range)?
A: 3 to 50

From patent US20260241307A1, “PROCESS FOR MAKING DRUG CRYSTALS OF DESIRED SIZE DISTRIBUTION AND MORPHOLOGY” (EUPRAXIA PHARMACEUTICALS INC., priority 2019, published 2026)
